Reference: PMC9131456, “Structure-Based Discovery of Lipoteichoic Acid Synthase Inhibitors” (Journal of Chemical Information and Modeling, 2022)

Legend:
HEK293 cells = assay: LDH release cytotoxicity assay; assay type: cell-based, human; details: 200 μM compound, 24 h
Description: The human embryonic kidney (HEK293) cells were maintained in Dulbecco’s modified Eagle medium (DMEM) supplemented with 10% fetal bovine serum and 100 units/mL of penicillin–streptomycin. For the cell viability assays, cells were seeded onto 96-well plates at a density of 4 × 10^4 cells/well and grown at 37 °C at 5% CO2. After incubating the cells for 24 h, the culture media were replaced with fresh DMEM supplemented with 200 μM of the compounds 1771, compound 4, compound 8, and compound 9 and incubated further for an additional 24 h. The cytotoxicity of these drugs was measured using the LDH Cytotoxicity Assay Kit according to the manufacturer’s instruction (Thermo Scientific). The absorbance at 490 nm was measured with a CLARIOstar microplate reader (BMG Labtech), and the reference wavelength was set at 630 nm.

[1] = test system: S. aureus (strain Newman); assay: Non-lethal S. aureus lung infection mouse model; assay type: in vivo, BALB/c female mice; details: single intranasal dose of 300 μg 3 h postinfection; lungs collected 24 h postinfection; 5 × 10^7 CFU intranasal
Description: All in vivo experiments were done at the University of Liverpool under the UK Animals (Scientific Procedures) Act 1986 guidelines. The protocols were approved by the UK Home Office and by the University of Liverpool Animal Welfare and Ethics Committee. Six to eight week old BALB/c female mice (Charles River, UK) were used in the study after being left to acclimatize for a minimum of 7 days prior to experimentation. Mice were intranasally infected with 5 × 10^7 CFU of the S. aureus (strain Newman) in 50 μL of sterile phosphate-buffered saline (PBS). The bacterial dose was prepared by incubating 50 μL of an overnight culture in brain heart infusion (BHI) broth (Oxoid, Thermo Fisher Scientific, UK) into 5 mL of fresh BHI. Once the culture reached an OD600 = 2–3, the bacterial numbers were adjusted to the desired dose using sterile PBS. Three hours postinfection, mice were intranasally treated with either 50 μL of sterile PBS (control) or with 300 μg of compounds 1771 and compound 4 dissolved in 50 μL of sterile PBS. The final DMSO concentration was 5%, and the PBS control also contained 5% DMSO. Mice were culled 24 h postinfection; lungs were collected, homogenized, and serially diluted to determine CFU counts.[70] Significant differences were determined using the unpaired two-tailed Student t-test (p = 0.0013).

[2] = test system: S aureus (strain Newman) biofilm; assay: Biofilm assay (crystal violet); assay type: cell-based; details: 20 h, compound tested at 50, 25 and 12.5 μM
Description: Biofilm assays were carried out on 96-well flat-bottom plates using the protocol described by […] et al.[48] Briefly, S aureus (strain Newman) was grown statically in 96-well plates at 37 °C in Tryptic soy broth supplemented with 0.5% glucose. Each well was additionally supplemented with either DMSO or compound 9 to concentrations of 50, 25, and 12.5 μM. After 20 h, the bacterial cultures from the plates were removed, and each well was rinsed with 150 μL of sterilized distilled water thrice. The plates were then incubated for 1 h at 60 °C. After that, the biofilm in each well was stained with 0.05% (w/v) of crystal violet solution using the protocol described by O'Toole.[67] Finally, the stained biofilms were solubilized with 30% acetic acid and quantified at OD600nm using the BMG Labtech CLARIOstar microplate reader.

MRSA strain COL = assay: Potentiation (checkerboard synergy) assay; assay type: cell-based, S. aureus
Description: All the compounds tested in this study were dissolved in dimethyl sulfoxide (DMSO) at an initial stock concentration of 20 mM and stored at −20 °C. These compounds were tested for their antimicrobial activity using the microdilution broth method[66] following the protocol described by Richter et al.[30] Briefly, overnight cultures of S. aureus (strain Newman) grown at 37 °C in cation-adjusted Mueller Hinton II (MH2) broth were adjusted to an OD600nm of 0.6 before back-diluted with a factor of 1:2000 with the same broth. After that, 200 μL of the diluted bacterial culture were dispensed into each well of 96-well plates supplemented with the compounds to the desired concentrations. The plates were then sealed with a moisture membrane barrier and incubated statically for 20 h at 37 °C. After that, the OD600nm values of the cultures in each well were measured using a CLARIOstar microplate reader (BMG Labtech). The procedures for the potentiation assays were by large the same as described above with some variations. In such assays, MRSA strain COL was grown in the 96-well plates supplemented with different concentrations of compound 9 with methicillin, carbenicillin, or polymyxin B in a checkerboard format. Their synergistic effects were quantified by OD600nm measurements using a CLARIOstar microplate reader (BMG Labtech).

[3] = test system: S. aureus (strain Newman); assay: Thin-section TEM ultrastructure analysis; assay type: cell-based; details: 5 μM compound 4 or 100 μM compound 9
Description: The TEM imaging protocol was adapted from Garufi et al.[68]S. aureus (strain Newman) was grown in 20 mL of MH2 broth with either DMSO, 5 μM of compound 4 or 100 μM of compound 9 at 37 °C. When the control culture had reached an OD600nm ∼ 1, the cells were pelleted at 1520g and submitted to the Cambridge Advanced Imaging Centre for preimaging processing. Briefly, the cells were washed with water and fixed with 2% glutaraldehyde-4% paraformaldehyde in 0.1 M sodium cacodylate buffer (pH 7.2) for 2 h. After fixation, the cells were stained, dehydrated, and embedded in Spurr resin. The resin was cut into thin sections and viewed using a Tecnai G2 Transmission Electron Microscope at 200 kV with a bottom-mounted AMT CCD digital camera.

[4] = MRSA strain COL, compound 9 at subinhibitory 12.5 μM, checkerboard

| Structure (SMILES) | cytotoxicity (LDH release) (HEK293 cells) | reduction in recoverable colonies from the lungs [1] [log] | reduction in biofilm attachment [2] [%] | reduction of the minimum inhibitory concentration of carbenicillin (MRSA strain COL; [4]) [fold] | reduction of the minimum inhibitory concentration of methicillin (MRSA strain COL; [4]) [fold] | increase in sensitivity toward polymyxin B (MRSA strain COL; MRSA strain treated with compound 9, checkerboard) [fold] | ultrastructure of treated S. aureus (TEM) [3] |
| --- | --- | --- | --- | --- | --- | --- | --- |
| O=C(COC(=O)c1cn(-c2ccccc2)nc1-c1cccs1)Nc1nnc(-c2ccccc2)o1 [Compound 4] | non-cytotoxic | 2 | – | – | – | – | – |
| S=C(Nc1ccc(Cl)cc1)Nc1ccc(Sc2nc3ccccc3[nH]2)cc1 [Compound 9] | not cytotoxic | – | 50 | 32 | 16 | 4 | swollen S. aureus cells with a thickened peptidoglycan layer and cell division defects |
